Test results: patent US8440825B2, “Fumaric acid salt of varenicline” (Medichem S.A., priority 2008, dated 2013)
Where a name gives a salt, the structure may show the parent alone.

Key:
[1] = Stability studies of varenicline crystalline salts (one year storage, HPLC and XRD); assay type: physicochemical; conditions: for Purity (HPLC) % 1 year later: after one year at room temperature; for Purity (HPLC) % 1 year later / Purity (HPLC) % initial / XRD result 1 year later: normal pressure, ambient atmosphere; for XRD result Initial: initial polymorphic form, before storage; for Purity (HPLC) % initial: before storage at room temperature; for Stability in terms of chemical purity and polymorphic form (in words): after one year of storage; for XRD result 1 year later: polymorphic form after one year at room temperature
Method: The varenicline crystalline salts were stored under standard conditions (i.e. room temperature, normal pressure, ambient atmosphere). The samples were analyzed after one year by HPLC and XRD.

[2] = Solubility in water of varenicline salts; assay type: physicochemical

| Molecule | Purity (HPLC) % 1 year later [1] [%] | XRD result Initial [1] | Purity (HPLC) % initial [1] [%] | XRD result 1 year later [1] | Solubility in water [2] [mg/mL] | further results |
| --- | --- | --- | --- | --- | --- | --- |
| O=C(O)CCCC(=O)O.c1cnc2cc3c(cc2n1)C1CNCC3C1 [Example 3, varenicline glutarate] | 97.90 | Form I | 98.77 |  |  |  |
| varenicline L-malate [Malate Form II] | 99.66 | Form II | 99.94 | Form II |  | Stability in terms of chemical purity and polymorphic form (in words) ([1]; listed as varenicline L-malate Form II): highly stable in terms of chemical purity and of polymorphic form |
| varenicline phosphate [Example 13] |  |  |  |  | >20 | Purity (HPLC) % 1 year later ([1]; listed as Phosphate Form I): 99.89%; Stability in terms of chemical purity and polymorphic form (in words) [1]: highly stable in terms of chemical purity and in terms of polymorphic form; XRD result Initial ([1]; listed as Phosphate Form I): Form I; Purity (HPLC) % initial ([1]; listed as Phosphate Form I): 100%; XRD result 1 year later ([1]; listed as Phosphate Form I): Form I; Solubility in water (in words) [2]: highly soluble |
| varenicline di-mesylate [Example 11] | 99.28 | Form I | 99.99 |  | >20 |  |
| varenicline maleate [Example 8] | 99.90 | Form I | 100 | Form I | >20 | Stability in terms of chemical purity and polymorphic form (in words) [1]: highly stable in terms of chemical purity and of polymorphic form; Solubility in water (in words) [2]: highly soluble |
| varenicline phosphate [Phosphate Form II] | 99.93 | Form II | 99.89 | Form II |  |  |
| varenicline glycolate [Example 4] | 99.57 | Form I | 99.95 |  |  |  |
| varenicline oxalate [Example 12] | 99.72 | Form I | 99.91 |  | >20 |  |
| c1cnc2cc3c(cc2n1)[C@@H]1CNC[C@H]3C1 [Example 5, varenicline hydrochloride] |  |  |  |  |  | solubility [2]: > 20 mg/mL |
| O=C(O)CC(=O)O.c1cnc2cc3c(cc2n1)C1CNCC3C1 [Example 9, varenicline malonate] | 99.45 | Form I | 99.91 |  |  |  |
| varenicline L-malate [Example 7] |  |  |  |  | >20 | Purity (HPLC) % 1 year later ([1]; listed as Malate Form I): 99.47%; Stability in terms of chemical purity and polymorphic form (in words) ([1]; listed as varenicline L-malate Form I): stable in terms of chemical purity; XRD result Initial ([1]; listed as Malate Form I): Form I; Purity (HPLC) % initial ([1]; listed as Malate Form I): 99.95%; Solubility in water (in words) [2]: highly soluble |
| O=C(O)CCC(=O)C(=O)O.c1cnc2cc3c(cc2n1)C1CNCC3C1 [Example 6, varenicline α-ketoglutarate] | 98.45 | Form I | 99.71 |  |  |  |
| O=C(O)CCCCC(=O)O.c1cnc2cc3c(cc2n1)C1CNCC3C1.c1cnc2cc3c(cc2n1)C1CNCC3C1 [Example 1, varenicline hemi-adipate] | 99.77 | Form I | 99.89 | Form I |  | Stability in terms of chemical purity and polymorphic form (in words) [1]: highly stable in terms of chemical purity and of polymorphic form |
| O=S(=O)(O)CCS(=O)(=O)O.c1cnc2cc3c(cc2n1)C1CNCC3C1.c1cnc2cc3c(cc2n1)C1CNCC3C1 [Example 18, Varenicline Hemi-1,2-Ethane Disulfonate] | 99.36 | Form I | 99.97 |  |  |  |
| varenicline fumarate [Example 2] | 99.76 | Form I | 99.84 | Form I | >20 | Stability in terms of chemical purity and polymorphic form (in words) [1]: highly stable in terms of chemical purity and of polymorphic form; Solubility in water (in words) [2]: highly soluble |
| O=C(O)C(O)c1ccccc1.c1cnc2cc3c(cc2n1)C1CNCC3C1 (racemic) [Example 10, varenicline DL-mandelate] | 95.55 | Form I | 99.93 |  |  |  |
| varenicline galactarate [Example 16] | 99.71 | Form I | 99.91 | Form I | >20 | Stability in terms of chemical purity and polymorphic form (in words) [1]: highly stable in terms of chemical purity and of polymorphic form; Solubility in water (in words) [2]: highly soluble |
| c1cnc2cc3c(cc2n1)[C@@H]1CNC[C@H]3C1 [Hydrochloride, varenicline hydrochloride, reference compound] | 99.68 | Form II | 99.91 | Forms II + III |  |  |
| varenicline succinate [Example 15] |  |  |  |  | >20 |  |
| CC(O)C(=O)O.c1cnc2cc3c(cc2n1)C1CNCC3C1 (racemic) [Example 17, varenicline DL-lactate] | 98.48 | Form I | 98.98 |  |  |  |
| varenicline S-2-pyrrolidinon-5-carboxylate [Example 14] | 99.83 | Form I | 99.99 | Form I |  | Stability in terms of chemical purity and polymorphic form (in words) [1]: highly stable in terms of chemical purity and in terms of polymorphic form |
